Data taken from US20040224884A1, “Methods of screening for apoptosis-controlling agents for bone anabolic therapies and uses thereof” (priority 1998, published 2004).
Several values for one entry are separate records, joined by “and”; a condition that tells them apart may be missing. Equal entries are not always repeated.

Tests used:
wild type HeLa cells = test: Etoposide-induced apoptosis in wild type HeLa cells; type: cell-based, human; conditions: 10^−8 M, 1 h; etoposide 5×10^−5 M, 6 hour
From the text: CMV promoter alone and CMV promoter-driven cDNA for mERα or mErβ were stably transfected into HeLa cells. […] Cells were trypsinized, pelleted and trypan blue positive cells enumerated.
In this experiment, instead of calvaria cells, human HeLa cells which contain undetectable, if any, estrogen receptor were used. HeLa cells were stably transfected with either a CMV promoter-driven cDNA for the murine estrogen receptor-alpha (mERα) or a CMV promoter-driven cDNA for the murine estrogen receptor-beta (mERβ). […] Cells were trypsinized, pelleted and trypan blue positive cells were enumerated.

[1] = BMD by dual-energy x-ray absorptiometry in intact or ovariectomized mice; type: in vivo; design: global 1 BMD / hindquart BMD (1) / spine 1 BMD / global 2 BMD / hindquart BMD (2) / spine 2 BMD / global 1 BMD (mean) / hindquart BMD (1) (mean) / spine 1 BMD (mean) / global 2 BMD (mean) / hindquart BMD (2) (mean) / spine 2 BMD (mean): unit not given here; conditions: for Global BMD: 2000 ng/g body weight for 28 days; for global 2 BMD / hindquart BMD (2) / spine 2 BMD / global 2 BMD (mean) / hindquart BMD (2) (mean) / spine 2 BMD (mean): 2000 ng/g for 28 days, end of experiment; for global 2 BMD / hindquart BMD (2) / spine 2 BMD / global 1 BMD / hindquart BMD (1) / spine 1 BMD: individual animals; for global 1 BMD / hindquart BMD (1) / spine 1 BMD / global 1 BMD (mean) / hindquart BMD (1) (mean) / spine 1 BMD (mean): 2000 ng/g group, day 0 (initial)
Description: In a representative experiment of this sort, six 4-5 month old female mice per group are screened twice for BMD in a four week period immediately prior to the initiation of the experiment to establish that peak adult bone mass has been attained. A subset of mice are then ovariectomized. Intact and ovariectomized mice are treated with vehicle, or 20, 200 or 2000 ng/g body weight estratriene-3-ol or another test compound.
Stock solutions of the test agents (10,000 μg/ml) are maintained in approximately 2.0 ml of 95% ethanol. These stocks are diluted in 95% ethanol to make 1000 μg/ml and 100 μg/ml concentrations. The concentration of the stocks is checked spectrophotometrically. For each animal injection, the test agent is diluted in sesame oil and sonicated. Test agents are administered for 28 days by subcutaneous injections on alternative days. The mice are weighed weekly and serum samples are collected at appropriate times for analysis of bone biochemical markers, such as osteocalcin or collagen cross-links. Tetracycline labeling is performed by administration of the antibiotic (30 mg/kg) at 2 and 8 days prior to the end of each experiment.
During the 28 day experiment, BMD is determined in live animals at day 0, 14 and 28. Following animal sacrifice at the end of the experiment, the vertebral bones L1-L4 are collected for fixation and embedded undecalcified in methyimethacrylate plastic for the determination of the prevalence of osteoblast and osteocyte apoptosis and other static and dynamic histomorphometric measurements. L5 vertebrae are isolated for determining anti-fracture efficacy of the compounds by assaying compression, 3 point bending and other appropriate biomechanical tests. Results confirming the expected efficacy of these compounds show decreased prevalence of osteoblast and/or osteocyte apoptosis, and/or positive BMD changes, and/or increased cancellous bone area, and/or increased rate of bone formation, and/or increased biomechanical strength.
As an example, the results of an experiment whereby 2000 ng/g body weight of estratriene-3-ol was administered for 28 days to estrogen-replete (intact) or estrogen-deficient (ovariectomized) mice are shown in Table 2.
Each row represents values for individual animals. The first three sets of numbers represent the initial BMD measurements (by dual-energy x-ray absorptiometry with Hologic QDR2000 plus, using customized software) at day 0 and the last three BMD measurements at the end of the experiment. Global=BMD of the entire skeleton minus the head and tail; hindquarters=the mean BMD of both hindlimbs; spine=the BMD of cervical, thoracic and lumbar spine.

[2] = Vertebral compression strength of fifth lumbar vertebrae (L5); type: in vivo, mice; conditions: 2000 ng/g body weight for 28 days
Description: In a representative experiment of this sort, seven 4-5 month old female mice per group-are screened twice for BMD in a four week period immediately prior to the initiation of the experiment to establish that peak adult bone mass has been attained. A subset of mice are then ovariectomized. Intact and ovariectomized mice are treated with vehicle, or 20, 200 or 2000 ng/g body weight estratriene-3-ol or another ANGEL compound. […] Ultimate load bearing properties of the fifth lumbar murine vertebrae (L5) is determined. This is done using a servohydraulic axial-torsional material testing machine (Model MTS 810 Bionx; MTS Systems Corp., Eden Prairie, Minn.) and a Lebow load cell (Eaton Products, Troy, Mich.). Data are recorded and analyzed using the LabVIEW software package and an acquisition/signal conditioning board (Model NB-MIO-16, National Instruments Corporation, Austin, Tex.). The L5 specimens that is used for ultimate load bearing is cleaned of surrounding soft tissue and the length and diameter recorded with a digital caliper at a resolution of 0.01 mm (Mitutoyo Model #500-196, Ace Tools, Ft. Smith, Ariz.). […] Vertebrae are individually compressed between parallel loading platens along the cephalocaudad axis until failure and the ultimate load (in Newtons) and displacement (in mm) are recorded. […]

C[C@@]12CCC[C@H]1[C@@H]1CCc3cc(O)ccc3[C@H]1CC2 [estratriene-3-ol]
effect on etoposide-induced apoptosis of wild type HeLa cells (wild type HeLa cells): none of the three compounds had any effect
Global BMD ([1]; Ovx mice, p < 0.00001): 0.0555 ± 0.0011 g/cm2
global 2 BMD ([1]; Ovx mice): 0.0565 and 0.0557 and 0.0548 and 0.0545 and 0.0564 and 0.0568 and 0.0550 and 0.0539
hindquart BMD (2) ([1]; Ovx mice): 0.0602 and 0.0632 and 0.0599 (2×) and 0.0624 and 0.0598 and 0.0647 and 0.0630
spine 2 BMD ([1]; Ovx mice): 0.0608 and 0.0585 and 0.0584 and 0.0598 and 0.0610 and 0.0625 and 0.0578 and 0.0605
global 2 BMD (mean) ([1]; Ovx mice): 0.0555
hindquart BMD (2) (mean) ([1]; Ovx mice): 0.0618
spine 2 BMD (mean) ([1]; Ovx mice): 0.0599
global 1 BMD ([1]; Ovx mice): 0.0505 and 0.0542 and 0.0496 and 0.0540 and 0.0526 and 0.0569 and 0.0565 and 0.0528
hindquart BMD (1) ([1]; Ovx mice): 0.0527 and 0.0588 and 0.0504 and 0.0596 and 0.0547 and 0.0604 and 0.0591 and 0.0582
spine 1 BMD ([1]; Ovx mice): 0.0547 and 0.0581 and 0.0542 and 0.0586 and 0.0580 and 0.0628 and 0.0603 and 0.0568
global 1 BMD (mean) ([1]; Ovx mice): 0.0534
hindquart BMD (1) (mean) ([1]; Ovx mice): 0.0573
spine 1 BMD (mean) ([1]; Ovx mice): 0.0579
Global BMD ([1]; intact mice, p < 0.002): 0.0554 ± 0.0015 g/cm2
global 2 BMD ([1]; intact mice): 0.0550 and 0.0543 and 0.0541 and 0.0568 (2×) and 0.0537 and 0.0574
hindquart BMD (2) ([1]; intact mice): 0.0585 and 0.0603 and 0.0619 and 0.0629 and 0.0640 and 0.0554 and 0.0605
spine 2 BMD ([1]; intact mice): 0.0602 and 0.0604 and 0.0601 and 0.0613 and 0.0620 and 0.0588 and 0.0632
global 2 BMD (mean) ([1]; intact mice): 0.0554
hindquart BMD (2) (mean) ([1]; intact mice): 0.0605
spine 2 BMD (mean) ([1]; intact mice): 0.0609
global 1 BMD ([1]; intact mice): 0.0486 and 0.0511 and 0.0543 and 0.0537 and 0.0533 and 0.0521 and 0.0560
hindquart BMD (1) ([1]; intact mice): 0.0509 and 0.0565 and 0.0605 and 0.0577 and 0.0546 and 0.0544 and 0.0587
spine 1 BMD ([1]; intact mice): 0.0511 and 0.0560 and 0.0593 and 0.0584 and 0.0571 and 0.0555 and 0.0623
global 1 BMD (mean) ([1]; intact mice): 0.0527
hindquart BMD (1) (mean) ([1]; intact mice): 0.0562
spine 1 BMD (mean) ([1]; intact mice): 0.0571
Vertebral Compression ([2]; Ovx mice, p < 0.00001): 85.57 ± 10.17 Newtons
Vertebral Compression ([2]; intact mice, p < 0.006): 96.26 ± 15.92 Newtons
